Data as given in the supplement of paper PMC10307832.

Columns and labels:
Assay in all cases: relative viability (nuclei count vs DMSO), 5 days (fraction); higher = more cells survive
Vorinostat = compound: O=C(CCCCCCC(=O)Nc1ccccc1)NO [Vorinostat]
Outline: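 After an overnight hold at 37 °C, lung cancer cell lines in 1536-well plates were pinned with five library-drug doses (not always all listed), each √10 from the next, on vehicle-anchored plates. The cells stayed 5 days without fresh medium, then a one-step fix, permeabilisation and Hoechst stain preceded 4× imaging and MetaXpress nuclear counts. A plate passed only with control CV under 25% and at least one doubling. Viability is the median, over plates, of treated-well nuclei relative to vehicle-well nuclei.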

Vorinostat + Linsitinib = compound: O=C(CCCCCCC(=O)Nc1ccccc1)NO [Vorinostat] + C[C@]1(O)C[C@@H](c2nc(-c3ccc4ccc(-c5ccccc5)nc4c3)c3c(N)nccn32)C1 [Linsitinib] (partner 1 µM)
Outline: (§1)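 Nuclei were stained with Hoechst during a one-step fixation (final 0.05% Triton X-100, 1% formaldehyde, 1 ug/ml Hoechst) carried out 5 days after dosing, then counted on 4× images. The cells, lung cancer lines in 1536-well plates, had been dosed by pin tool the day after seeding with one drug alone or a fixed anchor-drug dose plus five library-drug doses (not always all listed) in √10 steps. Relative viability is the nuclei count in treated wells divided by that in vehicle wells, and each value is the median of duplicate plates.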

Vorinostat + Navitoclax = compound: O=C(CCCCCCC(=O)Nc1ccccc1)NO [Vorinostat] + CC1(C)CCC(c2ccc(Cl)cc2)=C(CN2CCN(c3ccc(C(=O)NS(=O)(=O)c4ccc(N[C@H](CCN5CCOCC5)CSc5ccccc5)c(S(=O)(=O)C(F)(F)F)c4)cc3)CC2)C1 [Navitoclax] (partner 0.5 µM)
Outline: as §1

Vorinostat + Olaparib = compound: O=C(CCCCCCC(=O)Nc1ccccc1)NO [Vorinostat] + O=C(c1cc(Cc2n[nH]c(=O)c3ccccc23)ccc1F)N1CCN(C(=O)C2CC2)CC1 [Olaparib] (partner 8 µM)
Outline: as §1

Vorinostat + Foretinib = compound: O=C(CCCCCCC(=O)Nc1ccccc1)NO [Vorinostat] + COc1cc2c(Oc3ccc(NC(=O)C4(C(=O)Nc5ccc(F)cc5)CC4)cc3F)ccnc2cc1OCCCN1CCOCC1 [Foretinib] (partner 0.25 µM)
Outline: as §1

Vorinostat + Alpelisib = compound: O=C(CCCCCCC(=O)Nc1ccccc1)NO [Vorinostat] + Cc1nc(NC(=O)N2CCC[C@H]2C(N)=O)sc1-c1ccnc(C(C)(C)C(F)(F)F)c1 [Alpelisib] (partner 2 µM)
Outline: as §1

Vorinostat + Lapatinib = compound: O=C(CCCCCCC(=O)Nc1ccccc1)NO [Vorinostat] + CS(=O)(=O)CCNCc1ccc(-c2ccc3ncnc(Nc4ccc(OCc5cccc(F)c5)c(Cl)c4)c3c2)o1 [Lapatinib] (partner 2 µM)
Outline: as §1

Vorinostat + Crizotinib = compound: O=C(CCCCCCC(=O)Nc1ccccc1)NO [Vorinostat] + C[C@@H](Oc1cc(-c2cnn(C3CCNCC3)c2)cnc1N)c1c(Cl)ccc(F)c1Cl [Crizotinib] (partner 1 µM)
Outline: as §1

Vorinostat + Bortezomib = compound: O=C(CCCCCCC(=O)Nc1ccccc1)NO [Vorinostat] + CC(C)C[C@H](NC(=O)[C@H](Cc1ccccc1)NC(=O)c1cnccn1)B(O)O [Bortezomib] (partner 0.002 µM)
Outline: as §1

Vorinostat + Pictilisib = compound: O=C(CCCCCCC(=O)Nc1ccccc1)NO [Vorinostat] + CS(=O)(=O)N1CCN(Cc2cc3nc(-c4cccc5[nH]ncc45)nc(N4CCOCC4)c3s2)CC1 [Pictilisib] (partner 1 µM)
Outline: as §1

Vorinostat + Phenformin = compound: O=C(CCCCCCC(=O)Nc1ccccc1)NO [Vorinostat] + N=C(N)NC(=N)NCCc1ccccc1 [Phenformin] (partner 250 µM)
Outline: as §1

Vorinostat + Decitabine = compound: O=C(CCCCCCC(=O)Nc1ccccc1)NO [Vorinostat] + Nc1ncn([C@H]2C[C@H](O)[C@@H](CO)O2)c(=O)n1 [Decitabine] (partner 2 µM)
Outline: as §1

Work on EBC-1 yielded a relative viability (Vorinostat; 0.253 µM) of 0.913, a relative viability (Vorinostat; 0.8 µM) of 0.654 and a relative viability (Vorinostat; 2.53 µM) of 0.222. For the same cell line, the relative viability (Vorinostat; 8 µM) was 0.0742, the relative viability (Vorinostat + Linsitinib; first compound 0.253 µM) was 0.838 and the relative viability (Vorinostat + Linsitinib; first compound 0.8 µM) was 0.458. It also gave a relative viability (Vorinostat + Linsitinib; first compound 2.53 µM) of 0.134, a relative viability (Vorinostat + Linsitinib; first compound 8 µM) of 0.0589 and a relative viability (Vorinostat + Navitoclax; first compound 0.253 µM) of 0.376. For the same cell line, the relative viability (Vorinostat + Navitoclax; first compound 0.8 µM) was 0.215, the relative viability (Vorinostat + Navitoclax; first compound 2.53 µM) was 0.126 and the relative viability (Vorinostat + Navitoclax; first compound 8 µM) was 0.114. For the same cell line, the relative viability (Vorinostat + Olaparib; first compound 0.253 µM) was 0.681, the relative viability (Vorinostat + Olaparib; first compound 0.8 µM) was 0.476 and the relative viability (Vorinostat + Olaparib; first compound 2.53 µM) was 0.193. It also gave a relative viability (Vorinostat + Olaparib; first compound 8 µM) of 0.0767, a relative viability (Vorinostat + Foretinib; first compound 0.253 µM) of 0.117 and a relative viability (Vorinostat + Foretinib; first compound 0.8 µM) of 0.101. It also gave a relative viability (Vorinostat + Foretinib; first compound 2.53 µM) of 0.0655, a relative viability (Vorinostat + Foretinib; first compound 8 µM) of 0.044 and a relative viability (Vorinostat + Alpelisib; first compound 0.253 µM) of 0.675. For the same cell line, the relative viability (Vorinostat + Alpelisib; first compound 0.8 µM) was 0.65, the relative viability (Vorinostat + Alpelisib; first compound 2.53 µM) was 0.143 and the relative viability (Vorinostat + Alpelisib; first compound 8 µM) was 0.0927. The relative viability (Vorinostat + Lapatinib; first compound 0.253 µM) was 0.243, the relative viability (Vorinostat + Lapatinib; first compound 0.8 µM) was 0.209 and the relative viability (Vorinostat + Lapatinib; first compound 2.53 µM) was 0.164. The relative viability (Vorinostat + Lapatinib; first compound 8 µM) was 0.124, the relative viability (Vorinostat + Crizotinib; first compound 0.253 µM) was 0.207 and the relative viability (Vorinostat + Crizotinib; first compound 0.8 µM) was 0.224. It also gave a relative viability (Vorinostat + Crizotinib; first compound 2.53 µM) of 0.169, a relative viability (Vorinostat + Crizotinib; first compound 8 µM) of 0.118 and a relative viability (Vorinostat + Bortezomib; first compound 0.253 µM) of 0.376. The relative viability (Vorinostat + Bortezomib; first compound 0.8 µM) was 0.325, the relative viability (Vorinostat + Bortezomib; first compound 2.53 µM) was 0.124 and the relative viability (Vorinostat + Bortezomib; first compound 8 µM) was 0.0971. The relative viability (Vorinostat + Pictilisib; first compound 0.253 µM) was 0.32, the relative viability (Vorinostat + Pictilisib; first compound 0.8 µM) was 0.203 and the relative viability (Vorinostat + Pictilisib; first compound 2.53 µM) was 0.1. It also gave a relative viability (Vorinostat + Pictilisib; first compound 8 µM) of 0.0715.
For A549, the relative viability (Vorinostat; 0.253 µM) was 1.05, the relative viability (Vorinostat; 0.8 µM) was 0.848 and the relative viability (Vorinostat; 2.53 µM) was 0.337. It also gave a relative viability (Vorinostat; 8 µM) of 0.0442, a relative viability (Vorinostat + Linsitinib; first compound 0.253 µM) of 0.673 and a relative viability (Vorinostat + Linsitinib; first compound 0.8 µM) of 0.651. The relative viability (Vorinostat + Linsitinib; first compound 2.53 µM) was 0.194, the relative viability (Vorinostat + Linsitinib; first compound 8 µM) was 0.0382 and the relative viability (Vorinostat + Navitoclax; first compound 0.253 µM) was 1.31. For the same cell line, the relative viability (Vorinostat + Navitoclax; first compound 0.8 µM) was 1.08, the relative viability (Vorinostat + Navitoclax; first compound 2.53 µM) was 0.352 and the relative viability (Vorinostat + Navitoclax; first compound 8 µM) was 0.0351. The relative viability (Vorinostat + Olaparib; first compound 0.253 µM) was 0.278, the relative viability (Vorinostat + Olaparib; first compound 0.8 µM) was 0.177 and the relative viability (Vorinostat + Olaparib; first compound 2.53 µM) was 0.0609. It also gave a relative viability (Vorinostat + Olaparib; first compound 8 µM) of 0.0236, a relative viability (Vorinostat + Foretinib; first compound 0.253 µM) of 0.929 and a relative viability (Vorinostat + Foretinib; first compound 0.8 µM) of 0.478. The relative viability (Vorinostat + Foretinib; first compound 2.53 µM) was 0.0393, the relative viability (Vorinostat + Foretinib; first compound 8 µM) was 0.0151 and the relative viability (Vorinostat + Alpelisib; first compound 0.253 µM) was 0.861. The relative viability (Vorinostat + Alpelisib; first compound 0.8 µM) was 0.802, the relative viability (Vorinostat + Alpelisib; first compound 2.53 µM) was 0.104 and the relative viability (Vorinostat + Alpelisib; first compound 8 µM) was 0.0282. It also gave a relative viability (Vorinostat + Lapatinib; first compound 0.253 µM) of 1.02, a relative viability (Vorinostat + Lapatinib; first compound 0.8 µM) of 0.572 and a relative viability (Vorinostat + Lapatinib; first compound 2.53 µM) of 0.168. The relative viability (Vorinostat + Lapatinib; first compound 8 µM) was 0.0602, the relative viability (Vorinostat + Phenformin; first compound 0.253 µM) was 0.17 and the relative viability (Vorinostat + Phenformin; first compound 0.8 µM) was 0.168. It also gave a relative viability (Vorinostat + Phenformin; first compound 2.53 µM) of 0.0474, a relative viability (Vorinostat + Phenformin; first compound 8 µM) of 0.0242 and a relative viability (Vorinostat + Decitabine; first compound 0.253 µM) of 0.224. For the same cell line, the relative viability (Vorinostat + Decitabine; first compound 0.8 µM) was 0.302, the relative viability (Vorinostat + Decitabine; first compound 2.53 µM) was 0.256 and the relative viability (Vorinostat + Decitabine; first compound 8 µM) was 0.0174. It also gave a relative viability (Vorinostat + Crizotinib; first compound 0.253 µM) of 0.528, a relative viability (Vorinostat + Crizotinib; first compound 0.8 µM) of 0.107 and a relative viability (Vorinostat + Crizotinib; first compound 2.53 µM) of 0.054. The relative viability (Vorinostat + Crizotinib; first compound 8 µM) was 0.0379, the relative viability (Vorinostat + Pictilisib; first compound 0.253 µM) was 0.601 and the relative viability (Vorinostat + Pictilisib; first compound 0.8 µM) was 0.4. The relative viability (Vorinostat + Pictilisib; first compound 2.53 µM) was 0.0772 and the relative viability (Vorinostat + Pictilisib; first compound 8 µM) was 0.0417.
Cell Line Calu-6 has a relative viability (Vorinostat; 0.253 µM) of 1.07, a relative viability (Vorinostat; 0.8 µM) of 0.894 and a relative viability (Vorinostat; 2.53 µM) of 0.361. For the same cell line, the relative viability (Vorinostat; 8 µM) was 0.0946, the relative viability (Vorinostat + Linsitinib; first compound 0.253 µM) was 0.995 and the relative viability (Vorinostat + Linsitinib; first compound 0.8 µM) was 0.868. For the same cell line, the relative viability (Vorinostat + Linsitinib; first compound 2.53 µM) was 0.293, the relative viability (Vorinostat + Linsitinib; first compound 8 µM) was 0.0756 and the relative viability (Vorinostat + Navitoclax; first compound 0.253 µM) was 0.849. The relative viability (Vorinostat + Navitoclax; first compound 0.8 µM) was 0.761, the relative viability (Vorinostat + Navitoclax; first compound 2.53 µM) was 0.212 and the relative viability (Vorinostat + Navitoclax; first compound 8 µM) was 0.0656. It also gave a relative viability (Vorinostat + Olaparib; first compound 0.253 µM) of 0.527, a relative viability (Vorinostat + Olaparib; first compound 0.8 µM) of 0.377 and a relative viability (Vorinostat + Olaparib; first compound 2.53 µM) of 0.169. The relative viability (Vorinostat + Olaparib; first compound 8 µM) was 0.078, the relative viability (Vorinostat + Foretinib; first compound 0.253 µM) was 0.975 and the relative viability (Vorinostat + Foretinib; first compound 0.8 µM) was 0.728. The relative viability (Vorinostat + Foretinib; first compound 2.53 µM) was 0.183, the relative viability (Vorinostat + Foretinib; first compound 8 µM) was 0.0381 and the relative viability (Vorinostat + Alpelisib; first compound 0.253 µM) was 1.25. It also gave a relative viability (Vorinostat + Alpelisib; first compound 0.8 µM) of 0.917, a relative viability (Vorinostat + Alpelisib; first compound 2.53 µM) of 0.302 and a relative viability (Vorinostat + Alpelisib; first compound 8 µM) of 0.0879. It also gave a relative viability (Vorinostat + Lapatinib; first compound 0.253 µM) of 1.12, a relative viability (Vorinostat + Lapatinib; first compound 0.8 µM) of 0.876 and a relative viability (Vorinostat + Lapatinib; first compound 2.53 µM) of 0.416. For the same cell line, the relative viability (Vorinostat + Lapatinib; first compound 8 µM) was 0.107, the relative viability (Vorinostat + Crizotinib; first compound 0.253 µM) was 0.745 and the relative viability (Vorinostat + Crizotinib; first compound 0.8 µM) was 0.5. It also gave a relative viability (Vorinostat + Crizotinib; first compound 2.53 µM) of 0.153, a relative viability (Vorinostat + Crizotinib; first compound 8 µM) of 0.0713 and a relative viability (Vorinostat + Bortezomib; first compound 0.253 µM) of 0.917. It also gave a relative viability (Vorinostat + Bortezomib; first compound 0.8 µM) of 0.864, a relative viability (Vorinostat + Bortezomib; first compound 2.53 µM) of 0.434 and a relative viability (Vorinostat + Bortezomib; first compound 8 µM) of 0.127. The relative viability (Vorinostat + Pictilisib; first compound 0.253 µM) was 1.11, the relative viability (Vorinostat + Pictilisib; first compound 0.8 µM) was 0.838 and the relative viability (Vorinostat + Pictilisib; first compound 2.53 µM) was 0.238. It also gave a relative viability (Vorinostat + Pictilisib; first compound 8 µM) of 0.0615.
